Data on 10 compounds can be found in patent US6566047B1, “Method for identifying neurite-growth promoting agents” (The Regents of the University of Colorado, priority 1998, dated 2003).

“Also recorded” adds a separate entry of the source.

The test system of one assay is MAT-Lu cells. The assay is described as follows: Pseudopod morphometry (pseudopod length assay), MAT-Lu cells. Conditions: for effect of agent alone on pseudopod length: typically 15 min exposure; for effect of inhibitor pretreatment on AA-induced pseudopod shortening: 15 min pretreatment, indomethacin 10 ηm, NDGA 25 μM, CDC 63 and 126 nM. In kind it is cell-based, rat. As for the experimental part: Pseudopod Morphometry. To study the effects of various agents on pseudopods on a short-term basis, we measured pseudopod lengths. Cells plated in 35-mm diameter dishes at low density (1×10^4 per dish) were incubated overnight, tie medium was changed, and the experiments were run four hours later. First, cultures were shifted to serum-free medium, which was replaced one hour later by serum-free medium with or without the various agents (thrombin, AA or HETEs). Care was taken to avoid heat and light inactivation of the eicosanoids. Culture dishes were placed on a Zeiss inverted microscope equipped with a heated stage and viewed with a 16×phase contrast objective lens. Randomly selected fields of the cultures, containing generally about 20 cells each, were recorded, digitized and stored in the computer at the onset of the experiment and at different times thereafter.
In some cases, individual cells were monitored over different periods of time immediately after introduction of the reagent, either by mixing it into the medium or by applying it locally to one end of the cell. Local application was done with a “puffer” system that expels microliter amounts of the desired solution from a micromanipulator-controlled micropipette tip. Cell morphology was recorded, and the captured images were analyzed with a Power Macintosh computer using NIH Image. Cell process length was measured from the center of the nucleus to the end of the process. Characterization of the frequencies of pseudopod lengths, at a fixed time for each of a sequence of concentrations of reagent, utilized a gamma regression model with an inverse quadratic linear predictor (McCullagh and Nelder, Generalized Linear Models 2d ed., pp. 291-292 (Chapman & Hall, 1989), separately fit to each concentration data set. Although no formal goodness-of-fit tests were carried out, in virtually every case there was good visual representation of the pattern of response (see FIG. 14). Most data, however, are shown as whisker-box plots, where the center point represents the 50%, the ends of the box the […] and 75%, and the “whiskers” the 5% and 95% quantiles (e.g., FIG. 11). Statistical comparisons of pseudopod lengths for different treatments were done by standard non-parametric techniques (Wilcoxon Rank Sum or Kruskal-Wallis Tests), as judged appropriate. Polynomial curve fittings were done by standard least-squares techniques. Statistical analyses and graphing were done with the use of SAS procedures: Reg, Phreg, Nparlway and Plot (SAS institute Inc., Cary, N.C.).

The next assay relates to protein kinase C (PKC). The assay is described as follows: MARCKS phosphorylation by PKC in isolated GCPs. The assay is classed as biochemical, rat. Conditions: isolated growth cones. An excerpt: FIG. 7A. Thrombin stimulates MARCKS phosphorylation in a 12-LOX-dependent manner. FIG. 7B. 12(S)-HETE stimulates MARCKS phosphorylation by PKC in isolated GCPs. […] Polypeptides were resolved by SDS-PAGE. MARCKS phosphorylation was quantified by phosphorimaging.

The next assay concerns GCPs plated on laminin. The assay is described as follows: GCP release (detachment) assay on laminin. Also noted: species or system rat. Conditions: 20 min at 37° C., cytochalasin D 1 μM. As for the experimental part: GCP Release Assay. Petri dishes (35 mm diameter) were coated with 10 μg mouse laminin in PBS by incubation at room temperature for 60 min with shaking. Dishes were subsequently rinsed three times with PBS to remove unbound laminin and then blocked with 5% non-fat dry milk (Carnation) in PBS for 30 min. After three PBS rinses to remove blocking agent, the dishes were ready for the addition of GCPs. […] After incubation for five min at 37° C. this buffered GCP preparation was added to the laminincoated petri dishes. Contact with the substratum was facilitated by centrifuging the dishes for 15 min at 5000 g (Beckman JS5.2 rotor) at room temperature, followed by incubation at 37° C. to allow adhesion site formation. After 10 min, unattached GCPs were removed by rinsing the dishes twice with 1× modified Krebs buffer. Plated GCPs were then challenged with repellent factor (TRAP or thrombin) for 20 min at 37° C. The supernatant containing released GCPs was collected and centrifuged for protein determination of the pellet. GCPs that remained attached after repellent treatment were removed with 5% sodium dodecyl sulfate (SDS) for protein assay. Protein was measured according to Lowry et al. (1951) as modified by Peterson (1983). Results of these experiments were expressed as the percentage of released versus total GCP protein in the assay.

Assay [1] has as its system growth cones in cultures of rat cerebral cortex. The assay is described as follows: Growth cone collapse assay in cortical neuron culture. In kind it is cell-based. Conditions: for effect of inhibitor pretreatment on thrombin- or TRAP-induced growth cone collapse: CDC 10 μM, indomethacin 25 μM, pretreatment 30-45 min. As for the experimental part:
Neuron Culture. Cerebral cortices were dissected from embryonic day 18 Sprague-Dawley rats, cut into explants of less than 1 mm^3 and cultured on either poly-D-lysine-coated coverglass (Assistent) or poly-D-lvsine-coated tissue culture plastic. After 24 hours in B27 neurobasal medium (NB) supplemented with 10% fetal bovine serum, cultures were switched to serum-free B27/NB. The cultures were incubated at 37° C. in 5% CO2 in air. Sprouting neurons were observed readily on day 1. On day 2 or 3, long neurites were present, and the cultures were used for collapse experiments.
Actin Staining. After experimentation, cultures were fixed by slow infusion of fixative (4% paraformaldehyde in 0.1 M phosphate buffer, pH 7.4) into the culture dishes over 10 min (Pfenninger and Maylié-Pfenninger, J. Cell Biol. 89:53-546 (1981)). Thereafter, the fixative was removed by rinsing three times with phosphate-buffered saline (PBS) containing 1 mM glycine. Cultures were then blocked with PBS/1% bovine serum albumin (BSA) and permeabilized by incubation in 0.02% Triton X-100 for 5 min. After three washes in PBS/BSA, cultures were incubated with Texas-Red-conjugated phalloidin for 30 min. Unbound phalloidin was washed away by two PBS rinses, after which the coverglasses were mounted in Slow-Fade Light on microscope slides. Images were recorded on 35 mm film using a Zeiss Axiophot fluorescence microscope equipped with epiillumination.
Growth Cone Collapse Assay. Prior to repellent factor treatment, some of the day 2-3 explant cultures were pre-incubated (at 37° C.) with inhibitor or vehicle control (dimethylsulfoxide or ethanol) for 30-60 min. Cultures were then challenged with a repellent factor or vehicle control for 1-30 min. In some experiments, live cultures were photographed with a Zeiss IM 35 inverted photo microscope equipped with a stage heater, while in others cultures were fixed (as above) after 7 minutes of repellent factor treatment. Growth cone collapse was assessed quantitatively in aldehyde-fixed cultures by grading the degree of collapse in a large number of randomly selected growth cones.

The next assay has as its system 12-Lox. The assay is described as follows: Eicosanoid (HETE) generation in GCPs. The assay is classed as biochemical, rat. The protocol: Eicosanoid Assays. Eicosanoid production in GCPs was measured by metabolic labelling from ^14C-AA or ^14C-AA-PC or by mass spectrometric detection. […] To measure Lox activity directly, without PLA2 involvement, ^3H-AA was the substrate of choice. Reactions were stopped by the addition of chloroform/methanol as for the phospholipase assays. Reaction products were extracted as described by Birkle et al., Neuromethods, vol. 7, pp.227-244 (Humana Press, N.J. 1988), spotted on pre-activated si gel 60 TLC plates, and the plates developed in the upper phase of ethyl acetate/isooctane/acetic acid/water (100:60:20:100). AA and HETEs were identified by co-migration with standards. Appropriate bands were counted by liquid scintillation spectrometry.
For mass-spectrometric (MS) identification of HETEs, two different strategies were pursued:
(1) the appropriate bands from non-labelled samples (PC substrate) were scraped from the TLC plate into ether/methanol (9:1) and stored under N2 at −20° C. Authentic 12(S)-HETE, run alongside in the same manner, was used as a standard. Just prior to analysis, samples were passed over an SPE filter to eliminate silica particles, dried under argon, resuspended in 500 μl ethanol, and injected (at 3 μl/min) into a Finnigan LCQ quadrupole ion trap mass spectrometer (Finnigan MAT, San Jose, Calif.) equipped with an electrospray ionization source. All spectra were acquired at a capillary temperature of 80° C., and ion guide voltages were tuned to maximize the abundance of the deprotonated ion species [M-H]^− in negative mode. In order to generate a spectrum, typically 100 single scans were averaged.
(2) For the other strategy (liquid chromatography/tandem MS, LC/MS^2), the reaction substrate consisted of 3.5 μM AA, with the addition of 3.5 μM deuterated AA (AA-D8) plus 1 μCi ^3H-AA to track reaction products by mass and radioactivity, respectively. Reactions were stopped with ice-cold ethanol, the mixtures kept overnight at −20° C. under N2, and the proteins spun out The supernatants were diluted with H2O and loaded onto 1-ml C18 Sep-Pak columns (Varian). After washing with H2O, eicosanoid was eluted with 2 ml methanol. These samples were resolved by reverse-phase HPLC, and the eluted fractions analyzed by tandem MS on-line (MacMillan and Murphy, 1995). Collision-induced decomposition of HETE isomers produced characteristic fragments that were identified at the second MS stage.

The next assay concerns growth cone PLA2. The experiment in a line: PLA2 assay in growth cone particles (GCPs). The assay is classed as biochemical, rat. Conditions: GCPs. As for the experimental part: Growth Cone Particle (GCP) Isolation. GCPs were prepared as described by Pfenninger et al. (1983) and modified by Lohse et al., Dev. Brain Res., 96:38-96 (1996). Briefly, 18-day fetal brains were homogenized in approximately 8 volumes of 0.32 M sucrose containing 1 mM MgCl2, 2 mM TES buffer, pH 7.3, and 3 μM aprotinin. A low-speed supernatant (1,660 g×15 min) was loaded onto a discontinuous sucrose density gradient With steps of 0.83 M and 2.66 M sucrose containing MgCl2 and TES. The gradients were spun to equilibrium at 242,000 g for 40 min in a vertical rotor (Vti50, Beckman). The GCP fraction at the 0.32/0.83 M sucrose interface was collected and used for the experiments described below.
All assays were run in triplicate.

Regarding `CCCCC/C=C\C/C=C\C/C=C\C=C\[C@@H](O)CCCC(=O)O` [5(S)-HETE], in the assay on MAT-Lu cells, the “effect of agent alone on pseudopod length” value (“effect of agent alone” for short) was “essentially inactive; also recorded: had no effect on pseudopod length”.
As to `CCCCC/C=C\C[C@@H](O)/C=C/C=C\C/C=C\CCCC(=O)O` [12(R)-HETE], the “stimulation of MARCKS and GAP43 phosphorylation” value in the assay on protein kinase C (PKC) is listed as “not”. In the assay with MAT-Lu cells, the “effect of agent alone” value is “essentially inactive; also recorded: small reduction in pseudopod length”.
For `CCCCC[C@H](O)/C=C/C=C\C/C=C\C/C=C\CCCC(=O)O` [15(S)-HETE, 15(S)-hydroxyeicosatetraenoic acid], the “effect of agent alone” value with MAT-Lu cells is on record as “about as active as 12(S)-HETE; also recorded: reduced pseudopod lengths of MAT-Lu cells in a biphasic manner”.
With `CC(=O)C(C)=NO` [BDM, 2,3-butanedione monoxime], in the assay with GCPs plated on laminin, the “effect on GCP detachment from laminin” value is listed as “caused considerable release of GCPs by themselves”.
As to `CC(Cc1ccc(O)c(O)c1)C(C)Cc1ccc(O)c(O)c1` (stereo not drawn) [NDGA, nordihydroguaiaretic acid], the “effect of inhibitor pretreatment on thrombin- or TRAP-induced growth cone collapse” value in assay [1] is listed as “protects growth cones from thrombin- or TRAP-induced collapse”. For the same compound, in the assay on MAT-Lu cells, the “effect of inhibitor pretreatment on AA-induced pseudopod shortening” value is “blocked the AA effect completely; also recorded: inhibited the pseudopod shortening” and the “effect of agent alone” value is reported as “had no effect on pseudopod lengths”. The “effect on conversion of 14C-AA into 12(S)-HETE” value in the assay with 12-Lox (60 min, 37° C.) is given as “blocked”.
On to `C=C1[C@@H](C)[C@H]2[C@H](Cc3ccccc3)NC(=O)[C@]23[C@H](OC(C)=O)/C=C/[C@@](C)(O)C(=O)[C@@H](C)C/C=C/[C@H]3[C@@H]1O` [cytochalasin D], for which the “effect on GCP detachment from laminin” value with GCPs plated on laminin is “caused considerable release of GCPs by themselves”.
`COc1ccc2c(c1)c(CC(=O)O)c(C)n2C(=O)c1ccc(Cl)cc1` [indomethacin]: the “effect of inhibitor pretreatment on thrombin- or TRAP-induced growth cone collapse” value in assay [1] is recorded as “has no effect on control or thrombin treatment of growth cones”. Further, the “effect of inhibitor pretreatment on AA-induced pseudopod shortening” value in the assay on MAT-Lu cells is listed as “did not influence the AA effect; also recorded: had no effect at all”. The “effect of inhibitor on thrombin-stimulated HETE production from AA” value in the assay on 12-Lox (3H-AA substrate) is “not”.
On to “NGF: growth factor whose receptors are present on GCPs”, for which, in the assay with growth cone PLA2, the “activation of growth cone cPLA2/PLA2” value is on record as “only weakly or not at all”.
As to SFLLRN [TRAP], in assay [1] (thrombin 100 nM, TRAP (100 mM), 12(S)-HETE 10^−7 M), the “growth cone collapse, agent alone” value is “qualitatively the same effect as thrombin, but the change is not as pronounced”. Also, the “activation of growth cone cPLA2/PLA2” value is given as “clearly stimulated PLA2, but to a considerably lesser degree” in the assay on growth cone PLA2 and “much less effectively” in the assay with growth cone PLA2 (listed as TRAPs). Also, the figures for the “effect on GCP detachment from laminin” value with GCPs plated on laminin and with GCPs plated on laminin (listed as TRAPs) were “mimics the effect” and “much less effectively”, respectively.
With “insulin: insulin from Collaborative Biomedical Products”, the “activation of growth cone cPLA2/PLA2” value with growth cone PLA2 is “failed to stimulate PLA2 significantly”. Further, the “net activity (pmol/min/mg protein)” value with growth cone PLA2 (Table 3c, substrate PI, BDNF 100, IGF-1 0.75, insulin 1, thrombin 200 nM, control 159 ± 6.2) is 158 ± 8.4 pmol/min/mg protein.
